Patent EP0052437A1, “Antibacterial compounds, processes for their preparation and compositions containing them” (BEECHAM GROUP PLC, priority 1980, dated 1982)
≈ marks a conversion by molar mass, not a printed value.

Experiments:
Format in all cases: cell-based
M. suipneumoniae HK(2) = assay: Anti-mycoplasmal in vitro MIC; conditions: Mesomycoplasma hyopneumoniae, 144 h, Friis broth solidified with 0.9% agarose, 6 days incubation at 37°C
M. suipneumoniae Str. 11 = assay: Anti-mycoplasmal in vitro MIC; conditions: Mesomycoplasma hyopneumoniae, 144 h, Friis broth solidified with 0.9% agarose, 6 days incubation at 37°C
[1] = tested on: M. suipneumoniae J2206/183b; assay: Anti-mycoplasmal in vitro MIC; conditions: Mesomycoplasma hyopneumoniae, 144 h, Friis broth solidified with 0.9% agarose, 6 days incubation at 37°C
M. suipneumoniae MS 16 = assay: Anti-mycoplasmal in vitro MIC; conditions: Mesomycoplasma hyopneumoniae, MS16, 144 h, Friis broth solidified with 0.9% agarose, 6 days incubation at 37°C
M. suipneumoniae LABER = assay: Anti-mycoplasmal in vitro MIC; conditions: Mesomycoplasma hyopneumoniae, 144 h, Friis broth solidified with 0.9% agarose, 6 days incubation at 37°C
M. suipneumoniae UCD 1 = assay: Anti-mycoplasmal in vitro MIC; conditions: Mesomycoplasma hyopneumoniae, UCD1, 144 h, Friis broth solidified with 0.9% agarose, 6 days incubation at 37°C
[2] = tested on: M. suipneumoniae NCTC 10110; assay: Anti-mycoplasmal in vitro MIC; conditions: Mesomycoplasma hyopneumoniae, NCTC10110, 144 h, Friis broth solidified with 0.9% agarose, 6 days incubation at 37°C
M. hyorhinis ATCC 23234 = assay: Anti-mycoplasmal in vitro MIC; conditions: Mesomycoplasma hyorhinis, ATCC23234, 144 h, Friis broth solidified with 0.9% agarose, 6 days incubation at 37°C
M. hyorhinis ATCC 25021 = assay: Anti-mycoplasmal in vitro MIC; conditions: Mesomycoplasma hyorhinis, ATCC25021, 144 h, Friis broth solidified with 0.9% agarose, 6 days incubation at 37°C
[3] = tested on: M. hyosynoviae ATCC 25591; assay: Anti-mycoplasmal in vitro MIC; conditions: 144 h, Friis broth solidified with 0.9% agarose, 6 days incubation at 37°C
M. dispar NCTC 10125 = assay: Anti-mycoplasmal in vitro MIC; conditions: 144 h, Friis broth solidified with 0.9% agarose, 6 days incubation at 37°C
M. gallisepticum S6 = assay: Anti-mycoplasmal in vitro MIC; conditions: Mycoplasmoides gallisepticum, 144 h, Friis broth solidified with 0.9% agarose, 6 days incubation at 37°C
M. pneumoniae ATCC 15492 = assay: Anti-mycoplasmal in vitro MIC; conditions: Mycoplasmoides pneumoniae, ATCC15492, 144 h, Friis broth solidified with 0.9% agarose, 6 days incubation at 37°C
Bord. bronchiseptica BO8 = assay: Veterinary bacteria MIC; conditions: Bordetella bronchiseptica, Diagnostic Sensitivity Test Agar, 18 hours at 37°C
Description: (§1) The values were determined using a two fold serial dilutions.in Diagnostic Sensitivity Test Agar with an inoculum of 10^4 organisms and incubation for 18 hours at 37°C.

[4] = tested on: Erysipelothrix rhusiopathiae NCTC 8163; assay: Veterinary bacteria MIC; conditions: NCTC8163, Diagnostic Sensitivity Test Agar, 18 hours at 37°C
Description: as §1

Past. multocida PA2 = assay: Veterinary bacteria MIC; conditions: Pasteurella multocida, Diagnostic Sensitivity Test Agar, 18 hours at 37°C
Description: as §1

S. dublin S7 = assay: Veterinary bacteria MIC; conditions: Salmonella enterica, Diagnostic Sensitivity Test Agar, 18 hours at 37°C
Description: as §1

S. typhimurium S18 = assay: Veterinary bacteria MIC; conditions: Salmonella enterica, Diagnostic Sensitivity Test Agar, 18 hours at 37°C
Description: as §1

Strep. agalactiae SPA1 = assay: Veterinary bacteria MIC; conditions: Streptococcus agalactiae, Diagnostic Sensitivity Test Agar, 18 hours at 37°C
Description: as §1

Strep. dysgalactiae SPD1 = assay: Veterinary bacteria MIC; conditions: Streptococcus dysgalactiae, Diagnostic Sensitivity Test Agar, 18 hours at 37°C
Description: as §1

Strep. uberis SPU1 = assay: Veterinary bacteria MIC; conditions: Streptococcus uberis, Diagnostic Sensitivity Test Agar, 18 hours at 37°C
Description: as §1

Bacillus subtilis 6633 = assay: Human bacteria MIC; conditions: nutrient agar with 5% chocolated horse blood, 18 hours at 37°C
Description: (§2) The values were determined by serial dilutions in nutrient agar with 5% chocolated horse blood after incubations for 18 hours at 37 °C.

[5] = tested on: Corynebacterium xerosis 9755; assay: Human bacteria MIC; conditions: nutrient agar with 5% chocolated horse blood, 18 hours at 37°C
Description: as §2

E. Coli NCTC 10418 = assay: Human bacteria MIC; conditions: Escherichia coli, NCTC10418, nutrient agar with 5% chocolated horse blood, 18 hours at 37°C
Description: as §2

E. coli ESS = assay: Human bacteria MIC; conditions: Escherichia coli, nutrient agar with 5% chocolated horse blood, 18 hours at 37°C
Description: as §2

K. aerogenes A = assay: Human bacteria MIC; conditions: Klebsiella aerogenes, nutrient agar with 5% chocolated horse blood, 18 hours at 37°C
Description: as §2

[6] = tested on: Neisseria catarrhalis 1502; assay: Human bacteria MIC; conditions: nutrient agar with 5% chocolated horse blood, 18 hours at 37°C
Description: as §2

P. mirabilis 889 = assay: Human bacteria MIC; conditions: Proteus mirabilis, nutrient agar with 5% chocolated horse blood, 18 hours at 37°C
Description: as §2

[7] = tested on: Pasteurella multocida 1633; assay: Human bacteria MIC; conditions: nutrient agar with 5% chocolated horse blood, 18 hours at 37°C
Description: as §2

[8] = tested on: Ps. aeruginosa NCTC 10662; assay: Human bacteria MIC; conditions: Pseudomonas aeruginosa, NCTC10662, nutrient agar with 5% chocolated horse blood, 18 hours at 37°C
Description: as §2

Sarcina lutea 8340 = assay: Human bacteria MIC; conditions: Micrococcus luteus, nutrient agar with 5% chocolated horse blood, 18 hours at 37°C
Description: as §2

Staph. aureus Oxford = assay: Human bacteria MIC; conditions: Staphylococcus aureus, nutrient agar with 5% chocolated horse blood, 18 hours at 37°C
Description: as §2

Staph. aureus Russell = assay: Human bacteria MIC; conditions: Staphylococcus aureus, nutrient agar with 5% chocolated horse blood, 18 hours at 37°C
Description: as §2

Staph. aureus W2827 = assay: Human bacteria MIC; conditions: Staphylococcus aureus, nutrient agar with 5% chocolated horse blood, 18 hours at 37°C
Description: as §2

Strep. 641848-C = assay: Human bacteria MIC; conditions: nutrient agar with 5% chocolated horse blood, 18 hours at 37°C
Description: as §2

Strep. faecalis I = assay: Human bacteria MIC; conditions: Enterococcus faecalis, nutrient agar with 5% chocolated horse blood, 18 hours at 37°C
Description: as §2

SMILES | MIC (M. suipneumoniae HK(2)) | MIC (M. suipneumoniae Str. 11) | MIC [1] | MIC (M. suipneumoniae MS 16) | MIC (M. suipneumoniae LABER) | MIC (M. suipneumoniae UCD 1) | MIC [2] | MIC (M. hyorhinis ATCC 23234) | MIC (M. hyorhinis ATCC 25021) | MIC [3] | MIC (M. dispar NCTC 10125) | MIC (M. gallisepticum S6) | MIC (M. pneumoniae ATCC 15492) | MIC (Bord. bronchiseptica BO8) | MIC [4] | MIC (Past. multocida PA2) | MIC (S. dublin S7) | MIC (S. typhimurium S18) | MIC (Strep. agalactiae SPA1) | MIC (Strep. dysgalactiae SPD1) | other results
C/C(=C\C(=O)OCc1ccc(C#N)cc1)CC1OCC(CC2OC2C(C)C(C)O)C(O)C1O (stereo not drawn) [Example 3, p-Cyanobenzyl monate A] | 0.25 µg/mL (≈ 0.544 µM) | 0.1 µg/mL (≈ 0.218 µM) | 0.25 µg/mL (≈ 0.544 µM) | 0.1 µg/mL (≈ 0.218 µM) | 0.1 µg/mL (≈ 0.218 µM) | 0.25 µg/mL (≈ 0.544 µM) | 0.25 µg/mL (≈ 0.544 µM) | 0.1 µg/mL (≈ 0.218 µM) | 0.1 µg/mL (≈ 0.218 µM) | < 0.01 µg/mL | 0.05 µg/mL (≈ 0.109 µM) | 0.25 µg/mL (≈ 0.544 µM) | 0.25 µg/mL (≈ 0.544 µM) | 20 µg/mL (≈ 43.5 µM) | 40 µg/mL (≈ 87 µM) | 0.156 µg/mL (≈ 0.339 µM) | > 80 µg/mL | 80 µg/mL (≈ 174 µM) | 1.25 µg/mL (≈ 2.72 µM) | 0.156 µg/mL (≈ 0.339 µM) | MIC (Strep. uberis SPU1): 0.07 µg/mL (≈ 0.152 µM); MIC (Bacillus subtilis 6633): 0.1 µg/mL (≈ 0.218 µM); MIC [5]: > 100 µg/mL; MIC (E. Coli NCTC 10418): 50 µg/mL (≈ 109 µM); MIC (E. coli ESS): 0.25 µg/mL (≈ 0.544 µM); MIC (K. aerogenes A): 50 µg/mL (≈ 109 µM); MIC [6]: 0.1 µg/mL (≈ 0.218 µM); MIC (P. mirabilis 889): 50 µg/mL (≈ 109 µM); MIC [7]: 0.5 µg/mL (≈ 1.09 µM); MIC [8]: > 100 µg/mL; MIC (Sarcina lutea 8340): > 100 µg/mL; MIC (Staph. aureus Oxford): 0.25 µg/mL (≈ 0.544 µM); MIC (Staph. aureus Russell): 0.5 µg/mL (≈ 1.09 µM); MIC (Staph. aureus W2827): 0.5 µg/mL (≈ 1.09 µM); MIC (Strep. 641848-C): 0.25 µg/mL (≈ 0.544 µM); MIC (Strep. faecalis I): 100 µg/mL (≈ 218 µM)
C/C(=C\C(=O)OC(C)c1ccc(C#N)cc1)CC1OCC(CC2OC2C(C)C(C)O)C(O)C1O (stereo not drawn) [Example 4, 1-(p-Cyanophenyl)ethyl monate A] | 2.5 µg/mL (≈ 5.28 µM) | 1 µg/mL (≈ 2.11 µM) | 2.5 µg/mL (≈ 5.28 µM) | 1 µg/mL (≈ 2.11 µM) | 1 µg/mL (≈ 2.11 µM) | 1 µg/mL (≈ 2.11 µM) | 2.5 µg/mL (≈ 5.28 µM) | 0.5 µg/mL (≈ 1.06 µM) | 0.5 µg/mL (≈ 1.06 µM) | 0.1 µg/mL (≈ 0.211 µM) | 0.5 µg/mL (≈ 1.06 µM) | 10 µg/mL (≈ 21.1 µM) | 5 µg/mL (≈ 10.6 µM) | 80 µg/mL (≈ 169 µM) | 40 µg/mL (≈ 84.5 µM) | < 0.019 µg/mL | > 80 µg/mL | > 80 µg/mL | 10 µg/mL (≈ 21.1 µM) | 1.25 µg/mL (≈ 2.64 µM) | MIC (Strep. uberis SPU1): 1.25 µg/mL (≈ 2.64 µM); MIC (Bacillus subtilis 6633): 1 µg/mL (≈ 2.11 µM); MIC [5]: > 100 µg/mL; MIC (E. Coli NCTC 10418): > 100 µg/mL; MIC (E. coli ESS): 2.5 µg/mL (≈ 5.28 µM); MIC (K. aerogenes A): > 100 µg/mL; MIC [6]: 0.5 µg/mL (≈ 1.06 µM); MIC (P. mirabilis 889): > 100 µg/mL; MIC [7]: 10 µg/mL (≈ 21.1 µM); MIC [8]: > 100 µg/mL; MIC (Sarcina lutea 8340): > 100 µg/mL; MIC (Staph. aureus Oxford): 2.5 µg/mL (≈ 5.28 µM); MIC (Staph. aureus Russell): 5 µg/mL (≈ 10.6 µM); MIC (Staph. aureus W2827): 5 µg/mL (≈ 10.6 µM); MIC (Strep. 641848-C): 2.5 µg/mL (≈ 5.28 µM); MIC (Strep. faecalis I): > 100 µg/mL
